Measurements as given in PubChem BioAssay (NCI).
Several values for one entry are separate records, joined by “and”; a condition that tells them apart may be missing. Equal values may be shown once.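 Cultured in 96-well plates, cells were exposed to test compound for 48 hours across five concentrations. GI50 marks 50% less growth. TGI denotes the concentration required for complete inhibition of growth.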 Where a SMILES comes first, the peptide text is derived from it.

Assays:
Assay in all cases: growth of human tumour cells (NCI), 48 h
[1] = tested on: M19-MEL melanoma
[2] = tested on: DMS 273 small cell lung
[3] = tested on: UACC-62 melanoma
[4] = tested on: SK-MEL-5 melanoma
[5] = tested on: K-562 leukemia
[6] = tested on: SNB-78 CNS
[7] = tested on: COLO 205 colon
[8] = tested on: HL-60(TB) leukemia
[9] = tested on: BT-549 breast
[10] = tested on: MCF7 breast

## NC(=O)N/N=C(\C(=O)C(=O)Nc1ccc(Cl)c(C(F)(F)F)c1)c1nc2ccc(C(=O)c3ccccc3)cc2[nH]c1=O
[1]
  TGI: > 100 µM
[2]
  TGI: > 100 µM
[3]
  TGI: > 100 µM
[4]
  TGI: > 100 µM
[5]
  TGI: > 100 µM
[6]
  TGI: > 100 µM
[7]
  TGI: > 100 µM

## N=C1N(c2ccccc2)C(=O)C23CCCC2C13N1CCOCC1 (centres undefined)
[1]
  TGI: > 100 µM
[2]
  TGI: > 100 µM
[3]
  TGI: > 100 µM
[4]
  TGI: > 100 µM
[5]
  TGI: > 100 µM
[6]
  TGI: > 100 µM
[8]
  TGI: > 100 µM
[7]
  TGI: > 100 µM

## O=C(O)C1NCCc2c1[nH]c1ccccc21 (centres undefined)
[1]
  TGI: > 100 µM
[2]
  TGI: > 100 µM
[3]
  GI50: > 100 µM
  TGI: > 100 µM
[4]
  GI50: > 100 µM
  TGI: > 100 µM
[5]
  GI50: > 100 µM
  TGI: > 100 µM
[9]
  TGI: > 10 µM
[6]
  TGI: > 100 µM
[8]
  GI50: > 100 µM
  TGI: > 100 µM
[10]
  TGI: > 10 µM
[7]
  GI50: > 100 µM
  TGI: > 100 µM

## CCC(C)OC(=O)C1C2CCC(O2)C1C(=O)O (centres undefined)
[1]
  TGI: > 100 µM
[2]
  TGI: > 60.1 µM
[3]
  TGI: > 100 µM
[4]
  TGI: > 100 µM
[5]
  TGI: > 100 µM
[6]
  TGI: > 100 µM
[8]
  TGI: > 100 µM
[7]
  TGI: > 60.1 µM

## COC1C=CC(C(=O)[N+]2=Cc3[nH]c4ccccc4c3CC2)O1 (centres undefined)
[1]
  TGI: > 100 µM
[2]
  TGI: > 100 µM
[3]
  TGI: > 100 µM
[4]
  TGI: > 100 µM
[5]
  TGI: > 100 µM
[6]
  TGI: > 100 µM
[8]
  TGI: > 100 µM
[7]
  TGI: > 100 µM

## COC(=O)C1(C(=O)OC)CC2c3c(c4ccccc4n3C)CC(C1=O)N2Cc1ccccc1 (centres undefined)
[1]
  TGI: > 100 µM
[2]
  TGI: > 100 µM
[3]
  TGI: > 100 µM
[4]
  TGI: > 100 µM
[5]
  TGI: > 100 µM
[6]
  TGI: > 100 µM
[8]
  TGI: > 100 µM
[7]
  TGI: > 100 µM

## COC(=O)C(=O)C(C(=O)C(=O)Nc1ccc(Cl)cc1C)c1nc2ccc(C(=O)c3ccccc3)cc2[nH]c1=O (centres undefined)
[1]
  TGI: > 100 µM
[2]
  TGI: > 100 µM
[3]
  TGI: > 100 µM
[5]
  TGI: > 100 µM
[6]
  TGI: > 100 µM
[8]
  TGI: > 100 µM
[7]
  TGI: > 100 µM

## Cc1ccccc1NC(=O)C(=O)C(c1cnc2ccc([N+](=O)[O-])cc2n1)[N+](=O)[O-] (centres undefined)
[1]
  TGI: > 100 µM
[2]
  TGI: > 100 µM
[3]
  TGI: > 100 µM
[4]
  TGI: > 100 µM
[5]
  TGI: > 100 µM
[6]
  TGI: > 100 µM
[8]
  TGI: > 100 µM
[7]
  TGI: > 100 µM

## CC(C)CC(NC(=O)C(CC(C)C)NC(=O)C(Cc1cnc[nH]1)NC(=O)C(C)NC(=O)C(NC(=O)C(C)NC(=O)C(Cc1c[nH]c2ccccc12)NC(=O)C(CCC(=O)O)NC(=O)C(N)Cc1ccccc1)C(C)C)C(N)=O (centres undefined) (H-FEWAVAHLL-NH2; configuration not given here)
[1]
  TGI: > 100 µM
[2]
  TGI: > 100 µM
[3]
  GI50: > 100 µM
  TGI: > 100 µM
[4]
  TGI: > 12.5 µM
[5]
  GI50: > 100 µM
  TGI: > 100 µM
[6]
  TGI: > 100 µM
[8]
  GI50: > 100 µM
  TGI: > 100 µM
[10]
  TGI: > 12.5 µM
[7]
  GI50: > 100 µM
  TGI: > 100 µM

## COC(=O)/C(C#N)=C1\CCC(O)N1C (centres undefined)
[3]
  TGI: > 100 µM
[5]
  TGI: > 100 µM
[6]
  TGI: > 100 µM
[8]
  TGI: > 100 µM

## COC(=O)N/N=C(/CCN1CCCC1)CC(c1ccccc1)c1c(O)c2ccccc2oc1=O (centres undefined)
[1]
  TGI: > 100 µM
[2]
  TGI: > 100 µM
[3]
  TGI: > 100 µM
[4]
  TGI: > 100 µM
[5]
  TGI: > 100 µM
[6]
  TGI: > 100 µM
[8]
  TGI: > 100 µM
[7]
  TGI: > 100 µM

## C=C[C@]1(C)CCC2=C(CCC3C2(C)CCC[C@]3(C)CO)C1 (some centres undefined)
[1]
  TGI: > 100 µM
[2]
  TGI: > 100 µM
[3]
  TGI: > 100 µM
[4]
  TGI: > 100 µM
[5]
  TGI: > 100 µM
[6]
  TGI: > 100 µM
[8]
  TGI: 52.2 µM
[7]
  TGI: > 100 µM

## CC(=O)NC(CCCCNC(=O)N(CCCl)N=O)C(=O)NCc1ccccc1 (centres undefined)
[1]
  TGI: > 100 µM
[2]
  TGI: > 100 µM
[3]
  TGI: > 100 µM
[5]
  TGI: > 100 µM
[8]
  TGI: > 100 µM
[7]
  TGI: > 100 µM

## O=C1C(=O)N(C(=O)c2ccc(Cl)c(Cl)c2)c2ccc(Cl)cc21
[1]
  TGI: 39.9 µM
[2]
  TGI: > 100 µM
[3]
  TGI: > 100 µM
[4]
  TGI: > 100 µM
[5]
  TGI: > 100 µM
[6]
  TGI: > 100 µM
[8]
  TGI: 61.6 µM
[7]
  TGI: > 100 µM

## CC(=O)O[C@H]1C(=O)O[C@@H]2C[C@H]3C(C)=CC(=O)[C@@H](O)[C@]3(C)[C@H]3[C@@]4(O)OC[C@]32[C@@H]1[C@@H](C)[C@H]4O
[1]
  TGI: 0.072 µM
[2]
  TGI: 0.0682 µM
[3]
  GI50: 0.0271 µM
  TGI: 0.531 µM and 0.2 µM
[4]
  GI50: < 0.01 µM
  TGI: 0.0287 µM and 0.052 µM
[5]
  GI50: 0.0188 µM
  TGI: 0.125 µM and 0.128 µM
[9]
  TGI: 0.513 µM
[6]
  TGI: 0.384 µM
[8]
  TGI: 0.4 µM
[10]
  GI50: < 0.01 µM
  TGI: 0.0593 µM and 0.0543 µM
[7]
  GI50: 0.136 µM
  TGI: 0.365 µM and 0.686 µM

## COc1cc(-c2cc(=O)c3ccccc3o2)ccc1N
[1]
  TGI: > 100 µM
[2]
  TGI: > 100 µM
[3]
  TGI: > 100 µM
[4]
  TGI: > 100 µM
[5]
  TGI: > 100 µM
[6]
  TGI: > 100 µM
[8]
  TGI: 71.5 µM
[7]
  TGI: > 100 µM

## COc1cc2nc(Sc3c([N+](=O)[O-])ncn3C)[nH]c2cc1OC
[1]
  TGI: > 100 µM
[3]
  TGI: 75.8 µM
[4]
  TGI: 63.6 µM
[6]
  TGI: > 100 µM
[7]
  TGI: 30.2 µM

## C#CCOCn1cnc2c(=S)nc[nH]c21
[1]
  TGI: > 100 µM
[2]
  TGI: > 100 µM
[3]
  TGI: > 100 µM
[4]
  TGI: > 100 µM
[5]
  TGI: > 100 µM
[8]
  TGI: > 100 µM
[7]
  TGI: > 100 µM

## C/C=C/C=N/N(C(=O)c1cc([N+](=O)[O-])cc([N+](=O)[O-])c1)C1=NC(c2ccccc2)C(c2ccccc2)=NN1 (centres undefined)
[1]
  TGI: 46.2 µM
[2]
  TGI: > 100 µM
[3]
  TGI: > 100 µM
[4]
  TGI: 81.8 µM
[5]
  TGI: > 100 µM
[6]
  TGI: > 100 µM
[8]
  TGI: 55.6 µM
[7]
  TGI: 75 µM

## COc1cc2ccc3c4c(OC)cc(OC)c(OC)c4c(=O)n(C)c3c2cc1OC
[1]
  GI50: 3.7 µM
  TGI: 16.7 µM and > 40.9 µM
[2]
  GI50: 22.2 µM
[3]
  GI50: > 16.7 µM
  TGI: > 47.3 µM
[4]
  GI50: 4.11 µM
  TGI: 16.7 µM and 35.1 µM
[5]
  GI50: 0.303 µM
[6]
  TGI: 32.5 µM
[8]
  GI50: 0.351 µM
  TGI: 1.16 µM
[7]
  GI50: 1.3 µM
  TGI: 4.09 µM and 9.95 µM

## COC(=O)C(C(=O)C(=O)Nc1ccccc1C(C)=O)c1nc2ccc(Cl)cc2[nH]c1=O (centres undefined)
[1]
  TGI: > 100 µM
[3]
  TGI: > 100 µM
[4]
  TGI: > 100 µM
[5]
  TGI: > 100 µM
[6]
  TGI: > 100 µM
[8]
  TGI: > 100 µM
[7]
  TGI: > 100 µM

## CCC1=C(C)/C(=C/c2[nH]c(CBr)c(CC)c2C)N=C1CBr
[1]
  TGI: 33.7 µM
[2]
  TGI: > 100 µM
[3]
  TGI: 24.6 µM
[4]
  TGI: 30.5 µM
[5]
  TGI: > 100 µM
[8]
  TGI: 25.6 µM
[7]
  TGI: 30.2 µM

## Cc1c(C(=O)CC(=O)C(=O)Nc2ccc(Cl)c(Cl)c2)[n+](=O)c2ccccc2n1[O-]
[1]
  TGI: 33.3 µM
[2]
  TGI: 49.9 µM
[3]
  TGI: 32.7 µM
[4]
  TGI: 43.9 µM
[5]
  TGI: 57.2 µM
[6]
  TGI: > 100 µM
[8]
  TGI: 47.4 µM
[7]
  TGI: 36.1 µM
